The text below walks through data of US20110039879A1, “METHODS FOR INCREASING WHITE BLOOD CELLS” (FibroGen ,Inc., priority 2007, published 2011).

Assay type in all cases: in vivo, Swiss-Webster mice
Assay [1] concerns total white blood cell (WBC). In words: Total white blood cells by complete blood count on day 8, dosing day 1, 3, 5. The settings on record: Mus musculus, 192 h, mice, oral gavage, measured on day 8, read-out: Total WBC % Increase Over Control; for change in vivo at 100 mg/kg: 100 mg/kg on day 1, day 3 and day 5. The procedure: (§1) To examine the effect of compounds and methods of the present invention on increasing white blood cells, the following studies were performed. In one series of experiments, male Swiss-Webster mice were administered various compounds of the present invention via oral gavage using a ball-tipped gavage needle. […] Animals were dosed once daily for 3 or 4 days. Six hours after the final dosing, 200 μl blood samples were collected and total white blood cell, neutrophil, and lymphocyte levels were measured by complete blood count (CBC) using a CellDyn cell analyzer (Abbott Laboratories).
(§2) In another series of experiments, male Swiss-Webster mice were administered various compounds (see Table 7 and Table 8) of the present invention via oral gavage using a ball-tipped gavage needle. […] Total WBC, neutrophil, lymphocyte, and monocyte levels were measured in mice as described above on day 8 following administration of compound on day 1, day 3, and day 5.

In assay [2] the test system is neutrophils. The experiment in a line: Neutrophils by complete blood count on day 8, dosing day 1, 3, 5. The settings on record: Mus musculus, Neutrophil, 192 h; mice, oral gavage, 100 mg/kg on day 1, day 3 and day 5; measured on day 8; read-out: Neutrophils % Increase Over Control. The protocol:
as §1, §2

The next assay deals with lymphocytes. The experiment in a line: Lymphocytes by complete blood count on day 8, dosing day 1, 3, 5. The conditions noted are these: mice, oral gavage, measured on day 8. The procedure:
as §1, §2

The next assay concerns monocytes. The experiment in a line: Monocytes by complete blood count on day 8, dosing day 1, 3, 5. The settings on record: mice, oral gavage, measured on day 8.
Assay [3] deals with total white blood cell (WBC). The experiment in a line: Total white blood cells by complete blood count on day 8, dosing day 1, 3, 5. The conditions noted are these: mice, oral gavage, measured on day 8; for change in vivo at 6 mg/kg: Mus musculus, 192 h, read-out: Total WBC % Increase Over Control.
The subject of assay [4] is neutrophils. In words: Neutrophils by complete blood count on day 8, dosing day 1, 3, 5. The conditions noted are these: mice, oral gavage, measured on day 8; for change in vivo at 6 mg/kg: Mus musculus, Neutrophil, 192 h, read-out: Neutrophils % Increase Over Control.
Where [5] appears, read: Mus musculus, Lymphocyte, 192 h, 100 mg/kg on day 1, day 3 and day 5, read-out: Lymphocytes % Increase Over Control.
Setting [6] is: 100 mg/kg on day 1, day 3 and day 5.
[7] abbreviates: Mus musculus, Lymphocyte, 192 h, 6 mg/kg on day 1, day 3 and day 5, read-out: Lymphocytes % Increase Over Control.
The mark [8] stands for this setting: 6 mg/kg on day 1, day 3 and day 5.
Setting [9] is: 60 mg/kg on day 1, day 3 and day 5.

For `Cc1nc(C(=O)NCC(=O)O)c(O)c2cccc(Oc3ccccc3)c12` [Compound AC, [(4-Hydroxy-1-methyl-8-phenoxy-isoquinoline-3-carbonyl)-amino]-acetic acid], the change in vivo at 100 mg/kg in assay [1] was determined as 94%; with neutrophils [2], 96%; in the assay with lymphocytes (setting [5]), 95%. The Lymphocytes with lymphocytes (setting [6]) was 8.0 10^3 cells/μl. The Monocytes in the assay on monocytes (setting [6]) is given as 0.1 10^3 cells/μl. In addition, the “Total WBC” value in assay [3] (setting [6]) is 9.2 10^3 cells/μl. Further, the Neutrophils in the assay with neutrophils [4] (setting [6]) is reported as 1.0 10^3 cells/μl.

As to `Cc1nc(C(=O)NCC(=O)O)c(O)c2cccc(Oc3ccc(F)cc3)c12` [Compound AE, {[8-(4-Fluoro-phenoxy)-4-hydroxy-1-methyl-isoquinoline-3-carbonyl]-amino}-acetic acid], the change in vivo at 6 mg/kg amounted to 105% with lymphocytes (setting [7]), 109% in assay [3] (setting [8]) and 175% in the assay with neutrophils [4] (setting [8]). Further, the Lymphocytes in the assay with lymphocytes (setting [8]) is given as 11.0 10^3 cells/μl. Also, in the assay on monocytes (setting [8]), the Monocytes was 0.1 10^3 cells/μl. The “Total WBC” value in assay [3] (setting [8]) is reported as 12.3 10^3 cells/μl. Also, the Neutrophils with neutrophils [4] (setting [8]) is recorded as 1.1 10^3 cells/μl.

Consider `Cc1cccc(C)c1Oc1ccc2c(O)c(C(=O)NCC(=O)O)nc(C#N)c2c1` [Compound AI, {[1-Cyano-7-(2,6-dimethyl-phenoxy)-4-hydroxy-isoquinoline-3-carbonyl]-amino}-acetic acid], for which the change in vivo at 100 mg/kg in assay [1] amounted to 266%; with neutrophils [2], 45%; in the assay on lymphocytes (setting [5]), 303%; with monocytes (Mus musculus, Monocyte, 192 h, 100 mg/kg on day 1, day 3 and day 5, read-out: Monocytes % Increase Over Control), 0%. In addition, in the assay on lymphocytes (setting [6]), the Lymphocytes is recorded as 17.4 10^3 cells/μl. The Monocytes with monocytes (setting [6]) was 0.1 10^3 cells/μl. Besides, the “Total WBC” value in assay [3] (setting [6]) was 18.3 10^3 cells/μl. The Neutrophils with neutrophils [4] (setting [6]) is 0.7 10^3 cells/μl.

For the compound `COc1cccc(Oc2ccc3c(O)c(C(=O)NCC(=O)O)nc(C#N)c3c2)c1` [Compound BE, {[1-Cyano-4-hydroxy-7-(3-methoxy-phenoxy)-isoquinoline-3-carbonyl]-amino}-acetic acid], the change in vivo at 6 mg/kg was 40% with lymphocytes (setting [7]); 71% in the assay with monocytes (Mus musculus, Monocyte, 192 h, 6 mg/kg on day 1, day 3 and day 5, read-out: Monocytes % Increase Over Control); 39% in assay [3] (setting [8]); 30% with neutrophils [4] (setting [8]). Further, in the assay with lymphocytes (setting [8]), the Lymphocytes was 8.1 10^3 cells/μl. Moreover, the Monocytes in the assay with monocytes (setting [8]) is 0.3 10^3 cells/μl. Also, the “Total WBC” value in assay [3] (setting [8]) is given as 9.6 10^3 cells/μl. Also, in the assay with neutrophils [4] (setting [8]), the Neutrophils is recorded as 1.0 10^3 cells/μl.

Consider `COc1cccc(Cn2ccc3c(O)c(C(=O)NCC(=O)O)nc(C#N)c32)c1` [Compound M, {[7-Cyano-4-hydroxy-1-(3-methoxy-benzyl)-1H-pyrrolo[2,3-c]pyridine-5-carbonyl]-amino}-acetic acid], for which the change in vivo at 60 mg/kg in assay [1] (setting [9]) was determined as 149%; with lymphocytes (Mus musculus, Lymphocyte, 192 h, 60 mg/kg on day 1, day 3 and day 5, read-out: Lymphocytes % Increase Over Control), 126%; in the assay with monocytes (Mus musculus, Monocyte, 192 h, 60 mg/kg on day 1, day 3 and day 5, read-out: Monocytes % Increase Over Control) it was 100%. In the assay on lymphocytes (setting [9]), the Lymphocytes was 7.5 10^3 cells/μl. For the same compound, the Monocytes in the assay with monocytes (setting [9]) is listed as 0.1 10^3 cells/μl. For the same compound, in assay [3] (setting [9]), the “Total WBC” value was 9.7 10^3 cells/μl. The Neutrophils in the assay on neutrophils [4] (setting [9]) is reported as 0.6 10^3 cells/μl.
